Test results taken from US8871753B2, “Macrocyclic compounds and their use as kinase inhibitors” (Incyte Corporation, priority 2008, dated 2014).
Where a name gives a salt, the structure may show the parent alone. Read-outs that look alike come from different tables or passages of the source.

Tests used:
Assay type in all cases: biochemical
[1] = target: T1, human JAK1 (a.a. 837-1142) (Homo sapiens, UniProt P23458); test: In vitro JAK kinase assay (HTRF, phosphorylation of a biotinylated peptide), JAK1; details: read-out: JAK1 IC50
T1 construct: human JAK1 (a.a. 837-1142); His tag (N); made in house; host or cells: insect cells (baculovirus)
Summary of the method: (§1)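 Kinase reactions ran at room temperature for 1 h with ATP matched per isoform (JAK1 90 μM, JAK2 30 μM, JAK3 3 μM). After an EDTA stop, the phosphorylated biotin-peptide was read by HTRF using Eu-Py20 and SA-APC after 40 min binding.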

[2] = target: T2, human JAK2 (a.a. 828-1132) (Homo sapiens, UniProt O60674); test: In vitro JAK kinase assay (HTRF, phosphorylation of a biotinylated peptide), JAK2
T2 construct: JAK2 (a.a. 828-1132); His tag (N); made in house; host or cells: insect cells (baculovirus)
Summary of the method: as §1

[3] = target: T3, human JAK3 (a.a. 781-1124) (Homo sapiens, UniProt P52333); test: In vitro JAK kinase assay (HTRF, phosphorylation of a biotinylated peptide), JAK3
T3 construct: JAK3 (a.a. 781-1124); His tag (N); made in house; host or cells: insect cells (baculovirus)
Summary of the method: as §1

[4] = target: TYK2 (Homo sapiens, UniProt P29597); test: TYK2 kinase inhibition (Table A1)
[5] = target: T4, Recombinant Human Anaplastic Lymphoma Kinase (Homo sapiens, UniProt Q9UM73); test: ALK HTRF kinase assay
T4 construct: purchased Invitrogen, Carlsbad, Calif
Summary of the method: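 TR-FRET read-out (Eu anti-pTyr antibody + streptavidin-APC) of biotin-peptide phosphorylation by recombinant human enzyme; IC50 by sigmoidal fit with top/bottom baselines and Hill slope.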

[6] = percentage inhibition of the example compound at a concentration of 500 nM or 1 mM (not specified which)
[7] = Table B1, cells without percent sign
[8] = method AA1 (90 μM ATP) or AA2 (1000 μM ATP), not stated per value
[9] = method AA1 (30 μM ATP) or AA2 (1000 μM ATP), not stated per value
[10] = method AA1 (3 μM ATP) or AA2 (1000 μM ATP), not stated per value
[11] = compound at 500 nM or 1 mM, 90 μM ATP
[12] = compound at a concentration of 500 nM or 1 mM (not specified), cells shown as percentage

TYK2, sequence (P29597 whole entry): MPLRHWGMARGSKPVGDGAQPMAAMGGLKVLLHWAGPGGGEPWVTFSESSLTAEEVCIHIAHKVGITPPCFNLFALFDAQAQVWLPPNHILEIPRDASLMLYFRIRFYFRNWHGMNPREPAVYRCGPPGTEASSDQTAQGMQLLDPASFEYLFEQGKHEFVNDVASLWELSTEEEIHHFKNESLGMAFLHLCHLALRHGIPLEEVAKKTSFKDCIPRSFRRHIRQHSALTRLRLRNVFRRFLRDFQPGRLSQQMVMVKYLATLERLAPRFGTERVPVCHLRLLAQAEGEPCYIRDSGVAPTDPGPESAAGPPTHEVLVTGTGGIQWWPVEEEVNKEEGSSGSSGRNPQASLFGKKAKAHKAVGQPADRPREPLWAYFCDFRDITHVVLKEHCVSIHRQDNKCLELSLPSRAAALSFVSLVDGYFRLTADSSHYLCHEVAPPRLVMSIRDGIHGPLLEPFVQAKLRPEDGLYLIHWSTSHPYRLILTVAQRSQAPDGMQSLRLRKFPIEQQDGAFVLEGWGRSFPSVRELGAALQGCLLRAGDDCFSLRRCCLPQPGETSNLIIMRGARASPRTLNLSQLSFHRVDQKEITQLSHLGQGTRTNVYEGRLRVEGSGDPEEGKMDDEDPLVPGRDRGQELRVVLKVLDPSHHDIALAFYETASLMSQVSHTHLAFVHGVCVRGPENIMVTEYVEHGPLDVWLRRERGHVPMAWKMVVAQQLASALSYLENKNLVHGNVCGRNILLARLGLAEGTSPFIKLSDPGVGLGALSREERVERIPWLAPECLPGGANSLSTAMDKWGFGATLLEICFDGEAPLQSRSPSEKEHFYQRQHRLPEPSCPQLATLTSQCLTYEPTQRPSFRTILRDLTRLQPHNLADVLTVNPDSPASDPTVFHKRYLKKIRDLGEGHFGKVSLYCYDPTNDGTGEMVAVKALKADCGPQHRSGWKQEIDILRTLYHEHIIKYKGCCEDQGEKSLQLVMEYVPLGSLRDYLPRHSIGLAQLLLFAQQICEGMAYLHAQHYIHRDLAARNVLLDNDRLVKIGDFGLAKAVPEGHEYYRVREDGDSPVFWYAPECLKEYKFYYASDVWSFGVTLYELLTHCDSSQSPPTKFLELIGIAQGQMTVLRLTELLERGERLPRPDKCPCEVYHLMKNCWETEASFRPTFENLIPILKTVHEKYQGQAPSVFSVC
T4 sequence (Q9UM73 19-1620): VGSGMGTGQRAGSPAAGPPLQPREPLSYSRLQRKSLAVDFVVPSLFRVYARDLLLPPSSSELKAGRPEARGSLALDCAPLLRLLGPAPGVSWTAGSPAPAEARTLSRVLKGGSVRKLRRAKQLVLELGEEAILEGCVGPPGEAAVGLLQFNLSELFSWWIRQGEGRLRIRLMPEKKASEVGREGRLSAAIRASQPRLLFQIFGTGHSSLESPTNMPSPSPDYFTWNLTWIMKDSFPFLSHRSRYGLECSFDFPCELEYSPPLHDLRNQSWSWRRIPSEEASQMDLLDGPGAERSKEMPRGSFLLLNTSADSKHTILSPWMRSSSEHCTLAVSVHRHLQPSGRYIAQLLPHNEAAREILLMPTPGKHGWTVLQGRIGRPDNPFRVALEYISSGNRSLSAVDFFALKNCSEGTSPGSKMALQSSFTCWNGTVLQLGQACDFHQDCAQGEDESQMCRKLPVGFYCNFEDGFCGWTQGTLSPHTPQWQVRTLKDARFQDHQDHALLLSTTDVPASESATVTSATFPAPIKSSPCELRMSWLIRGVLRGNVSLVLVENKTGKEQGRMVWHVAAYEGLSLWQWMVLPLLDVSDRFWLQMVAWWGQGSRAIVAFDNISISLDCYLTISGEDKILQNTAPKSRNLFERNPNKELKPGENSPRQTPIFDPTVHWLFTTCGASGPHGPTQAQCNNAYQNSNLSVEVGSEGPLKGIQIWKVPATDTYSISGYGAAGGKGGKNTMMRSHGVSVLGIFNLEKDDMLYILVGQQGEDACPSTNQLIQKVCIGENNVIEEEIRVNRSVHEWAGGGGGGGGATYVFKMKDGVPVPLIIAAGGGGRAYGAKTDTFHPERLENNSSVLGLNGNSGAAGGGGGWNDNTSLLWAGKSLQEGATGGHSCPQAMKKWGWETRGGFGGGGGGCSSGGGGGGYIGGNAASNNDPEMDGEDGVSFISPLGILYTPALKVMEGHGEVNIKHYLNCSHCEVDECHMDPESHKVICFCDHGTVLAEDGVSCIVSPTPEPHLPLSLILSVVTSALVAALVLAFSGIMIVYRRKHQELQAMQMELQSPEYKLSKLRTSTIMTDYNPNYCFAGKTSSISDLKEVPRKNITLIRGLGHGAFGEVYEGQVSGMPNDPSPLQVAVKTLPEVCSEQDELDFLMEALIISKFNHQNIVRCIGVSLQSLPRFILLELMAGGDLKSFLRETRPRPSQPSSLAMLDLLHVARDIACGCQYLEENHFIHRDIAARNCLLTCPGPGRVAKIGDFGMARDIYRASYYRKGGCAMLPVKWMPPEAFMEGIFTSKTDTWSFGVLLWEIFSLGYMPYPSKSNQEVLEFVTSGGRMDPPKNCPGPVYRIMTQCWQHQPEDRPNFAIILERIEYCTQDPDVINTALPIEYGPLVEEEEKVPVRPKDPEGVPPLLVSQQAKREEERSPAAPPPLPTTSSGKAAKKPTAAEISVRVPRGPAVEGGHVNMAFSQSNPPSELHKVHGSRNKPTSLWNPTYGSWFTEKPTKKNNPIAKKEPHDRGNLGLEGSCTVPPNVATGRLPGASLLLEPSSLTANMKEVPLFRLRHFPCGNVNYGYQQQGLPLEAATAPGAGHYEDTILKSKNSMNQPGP
T3 sequence (P52333 781-1124): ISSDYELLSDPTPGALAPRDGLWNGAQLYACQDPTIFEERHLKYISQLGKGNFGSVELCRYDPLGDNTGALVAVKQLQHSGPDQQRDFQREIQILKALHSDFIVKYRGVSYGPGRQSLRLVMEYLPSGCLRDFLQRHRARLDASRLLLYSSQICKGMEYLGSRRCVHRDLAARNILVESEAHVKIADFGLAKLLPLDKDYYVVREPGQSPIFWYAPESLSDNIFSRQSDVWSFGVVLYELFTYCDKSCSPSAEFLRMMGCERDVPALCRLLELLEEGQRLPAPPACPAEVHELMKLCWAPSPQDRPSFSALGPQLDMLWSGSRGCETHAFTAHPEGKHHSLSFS
T2 sequence (O60674 828-1132): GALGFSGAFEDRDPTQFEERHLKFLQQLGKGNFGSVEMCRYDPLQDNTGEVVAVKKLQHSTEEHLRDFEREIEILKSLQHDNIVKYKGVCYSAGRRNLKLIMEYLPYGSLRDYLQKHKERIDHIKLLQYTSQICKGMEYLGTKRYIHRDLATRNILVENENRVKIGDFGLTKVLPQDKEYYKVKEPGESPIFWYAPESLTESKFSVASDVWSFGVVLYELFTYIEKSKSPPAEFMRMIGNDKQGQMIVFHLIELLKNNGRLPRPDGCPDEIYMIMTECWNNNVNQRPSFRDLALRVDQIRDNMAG
T1 sequence (P23458 849-1154): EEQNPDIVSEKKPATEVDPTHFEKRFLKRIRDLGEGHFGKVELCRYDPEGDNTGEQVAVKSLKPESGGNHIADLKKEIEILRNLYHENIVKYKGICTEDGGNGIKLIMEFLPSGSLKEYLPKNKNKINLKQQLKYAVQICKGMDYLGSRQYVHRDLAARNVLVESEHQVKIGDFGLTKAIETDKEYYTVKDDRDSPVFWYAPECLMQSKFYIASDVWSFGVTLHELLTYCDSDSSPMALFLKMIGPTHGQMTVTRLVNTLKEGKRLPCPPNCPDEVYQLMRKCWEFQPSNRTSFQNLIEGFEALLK

Row | SMILES | IC50 ([1]; Table B1) [nM] | IC50 ([2]; Table B1) [nM] | IC50 ([3]; Table B1) [nM] | IC50 ([4]; Table B1) [nM] | ALK % of inhibition at a concentration of 500 nM or 1 mM [5, 12] [%] | also measured
1 | CN(C)S(=O)(=O)NCCNC(=O)Nc1ccc2cc1CCc1cccc(c1)Nc1ncc(Cl)c(n1)N2 [Example B328, N-[6-chloro-2,4,8,22-tetraazatetracyclo[14.3.1.1(3,7).1(9,13)]docosa-1(20),3(22),4,6,9(21),10,12,16,18-nonaen-12-yl]-N′-(2-{[(dimethylamino)sulfonyl]amino}ethyl)urea trifluoroacetate] | 18 | 25 | 24 | 7.1 |  | ALK % of inhibition at a concentration of 500 nM or 1 mM [5, 6]: 16%
2 | CC(=O)N1Cc2cccc(c2)Nc2ncc(Cl)c(n2)Nc2cccc(c2)C1 [Example D74, 15-Acetyl-6-chloro-2,4,8,15,23-pentaazatetracyclo[15.3.1.1(3,7).1(9,13)]tricosa-1(21),3(23),4,6,9(22),10,12,17,19-nonaene trifluoroacetate] |  |  |  |  |  | IC50 ([1]; Table D1): 160 nM; IC50 ([2]; Table D1): 83 nM; IC50 ([3]; Table D1): 225 nM; IC50 ([4]; Table D1): 343 nM; IC50 ([5]; Table D1, 90 μM ATP): > 1000 nM
3 | Cc1ccccc1C(=O)Nc1ccc2cc1CCc1cccc(c1)Nc1ncc(Cl)c(n1)N2 [Example B35, N-[6-Chloro-2,4,8,22-tetraazatetracyclo[14.3.1.1(3,7).1(9,13)]docosa-1(20), 3(22),4,6,9(21),10,12,16,18-nonaen-12-yl]-2-methylbenzamide trifluoroacetate] | 0.6 | 0.35 | 1.4 | 1.3 |  | IC50 [5, 7]: 76 nM
4 | N#Cc1c(Cl)cncc1N1CCC(CC(=O)Nc2ccc3cc2CCc2cncc(c2)Nc2ncc(Cl)c(n2)N3)CC1 [Example A240, 2-[1-(5-Chloro-4-cyanopyridin-3-yl)piperidin-4-yl]-N-[6-chloro-2,4,8,18,22-pentaazatetracyclo[14.3.1.1(3,7).1(9,13)]docosa-1(20),3(22),4,6,9(21),10,12,16,18-nonaen-12-yl]acetamide tris(trifluoroacetate)] |  |  |  |  |  | IC50 [1, 8]: 1.5 nM; IC50 [2, 9]: 80 nM; IC50 [3, 10]: > 400 nM; IC50 [4]: 244 nM; ALK % of inhibition at a concentration of 500 nM or 1 mM [5, 11]: 29%
5 | O=C(Nc1ccc2cc1CCc1cccc(c1)Nc1ncc(Cl)c(n1)N2)N[C@H]1CCN(C(=O)c2ccncc2)C1 [Example B234, N-[6-Chloro-2,4,8,22-tetraazatetracyclo[14.3.1.1(3,7).1(9,13)]docosa-1(20),3(22),4,6,9(21),10,12,16,18-nonaen-12-yl]-N′-[(3S)-1-isonicotinoylpyrrolidin-3-yl]urea bis(trifluoroacetate)] | 4 | 6.5 | 40 | 11 | 31 | 
6 | CC(=O)Nc1ccc2cc1CCc1cccc(c1)Nc1ncc(Cl)c(n1)N2 [Example B26, N-[6-Chloro-2,4,8,22-tetraazatetracyclo[14.3.1.1(3,7).1(9,13)]docosa-1(20), 3(22),4,6,9(21),10,12,16,18-nonaen-12-yl]acetamide trifluoroacetate] | 6.5 | 4.1 | 7.4 | 15 |  | IC50 [5, 7]: 1100 nM
7 | Cc1cc(C(=O)N2CCC(CCC(=O)Nc3ccc4cc3CCc3cncc(c3)Nc3ncc(Cl)c(n3)N4)CC2)no1 [Example A125, N-[6-Chloro-2,4,8,18,22-pentaazatetracyclo[14.3.1.1(3,7).1(9,13)]docosa-1(20),3(22),4,6,9(21),10,12,16,18-nonaen-12-yl]-3-{1-[(5-methylisoxazol-3-yl)carbonyl]piperidin-4-yl}propanamide bis(trifluoroacetate)] |  |  |  |  |  | IC50 [1, 8]: 1.7 nM; IC50 [2, 9]: 4.9 nM; IC50 [3, 10]: 90 nM; IC50 [4]: 5.3 nM; ALK % of inhibition at a concentration of 500 nM or 1 mM [5, 11]: 25%
8 | CS(=O)(=O)Nc1ccc2cc1CCc1cccc(c1)Nc1ncc(Cl)c(n1)N2 [Example B140, N-[6-Chloro-2,4,8,22-tetraazatetracyclo[14.3.1.1(3,7).1(9,13)]docosa-1(20), 3(22),4,6,9(21),10,12,16,18-nonaen-12-yl]methanesulfonamide trifluoroacetate] | 0.51 | 0.2 | 1.3 | 0.89 |  | IC50 [5, 7]: 150 nM
9 | Cc1oncc1S(=O)(=O)N1CCC(CN(C)Cc2ccc3cc2CCc2cncc(c2)Nc2ncc(Cl)c(n2)N3)CC1 [Example B342, 1-[6-Chloro-2,4,8,18,22-pentaazatetracyclo[14.3.1.1(3,7).1(9,13)]docosa-1(20),3(22),4,6,9(21),10,12,16,18-nonaen-12-yl]-N-methyl-N-({1-[(5-methylisoxazol-4-yl)sulfonyl]piperidin-4-yl}methyl)methanamine tris(trifluoroacetate)] | 7.7 | 60 | > 400 | 226 |  | ALK % of inhibition at a concentration of 500 nM or 1 mM [5, 6]: 37%
10 | O=C(Cc1ccccc1)Nc1ccc2cc1CCc1cccc(c1)Nc1ncc(Cl)c(n1)N2 [Example B32, N-[6-Chloro-2,4,8,22-tetraazatetracyclo[14.3.1.1(3,7).1(9,13)]docosa-1(20), 3(22),4,6,9(21),10,12,16,18-nonaen-12-yl]-2-phenylacetamide trifluoroacetate] | 2.8 | 1.6 | 5.5 | 2.7 |  | IC50 [5, 7]: 940 nM
11 | CC(C)(C)OC(=O)N1CC[C@@H](NC(=O)Nc2ccc3cc2CCc2cccc(c2)Nc2ncc(Cl)c(n2)N3)C1 [Example B174, tert-Butyl (3R)-3-[({[6-chloro-2,4,8,22-tetraazatetracyclo[14.3.1.1(3,7).1(9,13)]docosa-1(20),3(22),4,6,9(21),10,12,16,18-nonaen-12-yl]amino}carbonyl)amino]pyrrolidine-1-carboxylate] | 15 | 27 | 124 | 62 | 12 | 
12 | O=C(Nc1nccs1)Nc1ccc2cc1CCc1cccc(c1)Nc1ncc(Cl)c(n1)N2 [Example B245, N-[6-Chloro-2,4,8,22-tetraazatetracyclo[14.3.1.1(3,7).1(9,13)]docosa-1(20),3(22),4,6,9(21),10,12,16,18-nonaen-12-yl]-N′-1,3-thiazol-2-ylurea trifluoroacetate] | 17 | 78 | 20 | 8.5 | 41 | 
13 | COc1ccc(NC(=O)Nc2ccc3cc2CCc2cccc(c2)Nc2ncc(Cl)c(n2)N3)cc1 [Example B101, N-[6-Chloro-2,4,8,22-tetraazatetracyclo[14.3.1.1(3,7).1(9,13)]docosa-1(20), 3(22),4,6,9(21),10,12,16,18-nonaen-12-yl]-N′-(4-methoxyphenyl)urea trifluoroacetate] | 4.5 | 10 | 26 | 19 | 39 | 
14 | CC(=O)N1CCC(CN(C)Cc2ccc3cc2CCc2cncc(c2)Nc2ncc(Cl)c(n2)N3)CC1 [Example B346, 1-(1-Acetylpiperidin-4-yl)-N-{[6-chloro-2,4,8,18,22-pentaazatetracyclo[14.3.1.1(3,7).1(9,13)]docosa-1(20),3(22),4,6,9(21),10,12,16,18-nonaen-12-yl]methyl}-N-methylmethanamine tris(trifluoroacetate)] | 13 | 91 | > 400 | > 400 |  | ALK % of inhibition at a concentration of 500 nM or 1 mM [5, 6]: 38%
15 | CCCc1ccccc1NC(=O)Nc1ccc2cc1CCc1cccc(c1)Nc1ncc(Cl)c(n1)N2 [Example B105, N-[6-Chloro-2,4,8,22-tetraazatetracyclo[14.3.1.1(3,7).1(9,13)]docosa-1(20), 3(22),4,6,9(21),10,12,16,18-nonaen-12-yl]-N′-(2-propylphenyl)urea trifluoroacetate] | 3.9 | 10 | 43 | 13 | 52 | 
16 | Cc1ncoc1C(=O)N1CC[C@H](NC(=O)Nc2ccc3cc2CCc2cncc(c2)Nc2ncc(Cl)c(n2)N3)C1 [Example B273, N-[6-Chloro-2,4,8,18,22-pentaazatetracyclo[14.3.1.1(3,7).1(9,13)]docosa-1(20),3(22),4,6,9(21),10,12,16,18-nonaen-12-yl]-N′-{(3S)-1-[(4-methyl-1,3-oxazol-5-yl)carbonyl]pyrrolidin-3-yl}urea bis(trifluoroacetate)] | 117 | 1630 | > 10000 | 3830 | 3.2 | 
17 | Brc1cnc2nc1Nc1cccc(c1)CCc1cccc(c1)N2 [Example B3, 6-Bromo-2,4,8,22-tetraazatetracyclo[14.3.1.1(3,7).1(9,13)]docosa-1(20),3(22),4,6,9(21),10,12,16,18-nonaene trifluoroacetate] | 9.2 | 3.5 | 67 | 15 |  | IC50 [5, 7]: 976 nM
